According to the NIST ThermoML archive (doi:10.1021/je060017i):
Numbers after ± are expanded uncertainties.

Key:
[1] = xn = mol fraction of the nth substance listed; settings: 101 kPa, Liquid
[2] = excess molar enthalpy (molar enthalpy of mixing); xn = mol fraction of the nth substance listed; settings: 101 kPa, Liquid, Flow calorimetry

CC1CCCO1 (configuration not stated) [2-methyltetrahydrofuran] + CCCCO
Settings | excess molar enthalpy [kcal/mol] | mass density [kg/m3] | speed of sound [m/s] | viscosity [mPa·s]
[1], 283.15 K, x1 = 0.0447 | – | – | 1292.4 ± 1.7 | –
[1], 283.15 K, x1 = 0.0518 | – | – | – | 3.231 ± 0.074
[1], 283.15 K, x1 = 0.0539 | – | 820.03 ± 0.91 | – | –
[1], 283.15 K, x1 = 0.1047 | – | 822.92 ± 0.9 | – | –
[1], 283.15 K, x1 = 0.1048 | – | – | – | 2.67 ± 0.062
[1], 283.15 K, x1 = 0.1154 | – | – | 1292.6 ± 1.7 | –
[1], 283.15 K, x1 = 0.2068 | – | 828.51 ± 0.89 | – | –
[1], 283.15 K, x1 = 0.2123 | – | – | – | 1.958 ± 0.046
[1], 283.15 K, x1 = 0.2143 | – | – | 1291.5 ± 1.7 | –
[1], 283.15 K, x1 = 0.2451 | – | – | 1291 ± 1.7 | –
[1], 283.15 K, x1 = 0.3108 | – | 833.9 ± 0.88 | – | –
[1], 283.15 K, x1 = 0.3159 | – | – | – | 1.507 ± 0.036
[1], 283.15 K, x1 = 0.4147 | – | 839.04 ± 0.86 | – | –
[1], 283.15 K, x1 = 0.4197 | – | – | – | 1.218 ± 0.03
[1], 283.15 K, x1 = 0.4221 | – | – | 1286.8 ± 1.6 | –
[1], 283.15 K, x1 = 0.4893 | – | 842.56 ± 0.85 | – | –
[1], 283.15 K, x1 = 0.5195 | – | – | – | 1.013 ± 0.025
[1], 283.15 K, x1 = 0.5204 | – | – | 1284 ± 1.6 | –
[1], 283.15 K, x1 = 0.6172 | – | – | 1281.2 ± 1.6 | –
[1], 283.15 K, x1 = 0.6195 | – | 848.41 ± 0.84 | – | –
[1], 283.15 K, x1 = 0.6211 | – | – | – | 0.865 ± 0.022
[1], 283.15 K, x1 = 0.7116 | – | – | – | 0.76 ± 0.02
[1], 283.15 K, x1 = 0.7128 | – | – | 1278.1 ± 1.6 | –
[1], 283.15 K, x1 = 0.724 | – | 852.97 ± 0.83 | – | –
[1], 283.15 K, x1 = 0.8078 | – | – | 1275.2 ± 1.6 | –
[1], 283.15 K, x1 = 0.8103 | – | – | – | 0.675 ± 0.018
[1], 283.15 K, x1 = 0.8923 | – | 859.92 ± 0.81 | – | –
[1], 283.15 K, x1 = 0.8952 | – | – | 1272.2 ± 1.6 | –
[1], 283.15 K, x1 = 0.9246 | – | – | – | 0.607 ± 0.017
[1], 283.15 K, x1 = 0.9364 | – | – | 1270.3 ± 1.6 | –
[1], 283.15 K, x1 = 0.9585 | – | – | – | 0.584 ± 0.016
[1], 298.15 K, x1 = 0.0341 | – | – | 1242.6 ± 1.6 | –
[1], 298.15 K, x1 = 0.0518 | – | – | – | 2.212 ± 0.052
[1], 298.15 K, x1 = 0.102 | – | 811.16 ± 0.93 | – | –
[1], 298.15 K, x1 = 0.1048 | – | – | – | 1.914 ± 0.045
[1], 298.15 K, x1 = 0.1054 | – | – | 1241.6 ± 1.6 | –
[1], 298.15 K, x1 = 0.2068 | – | 816.38 ± 0.92 | – | –
[1], 298.15 K, x1 = 0.2085 | – | – | 1238.8 ± 1.6 | –
[1], 298.15 K, x1 = 0.2123 | – | – | – | 1.446 ± 0.035
[1], 298.15 K, x1 = 0.2968 | – | – | 1235.7 ± 1.6 | –
[1], 298.15 K, x1 = 0.3108 | – | 821.37 ± 0.91 | – | –
[1], 298.15 K, x1 = 0.3159 | – | – | – | 1.145 ± 0.028
[1], 298.15 K, x1 = 0.3535 | – | – | 1233.4 ± 1.6 | –
[1], 298.15 K, x1 = 0.4152 | – | 826.08 ± 0.9 | – | –
[1], 298.15 K, x1 = 0.4197 | – | – | – | 0.951 ± 0.024
[1], 298.15 K, x1 = 0.4283 | – | – | 1230.3 ± 1.6 | –
[1], 298.15 K, x1 = 0.4848 | – | 829.16 ± 0.89 | – | –
[1], 298.15 K, x1 = 0.5058 | – | – | 1226.8 ± 1.6 | –
[1], 298.15 K, x1 = 0.5195 | – | – | – | 0.806 ± 0.021
[1], 298.15 K, x1 = 0.6075 | – | – | 1222.2 ± 1.6 | –
[1], 298.15 K, x1 = 0.6191 | – | 834.74 ± 0.87 | – | –
[1], 298.15 K, x1 = 0.6211 | – | – | – | 0.701 ± 0.019
[1], 298.15 K, x1 = 0.7077 | – | – | 1217.6 ± 1.6 | –
[1], 298.15 K, x1 = 0.7116 | – | – | – | 0.626 ± 0.017
[1], 298.15 K, x1 = 0.7245 | – | 838.88 ± 0.86 | – | –
[1], 298.15 K, x1 = 0.8103 | – | – | – | 0.563 ± 0.016
[1], 298.15 K, x1 = 0.8111 | – | – | 1212.6 ± 1.6 | –
[1], 298.15 K, x1 = 0.8157 | – | 842.28 ± 0.86 | – | –
[1], 298.15 K, x1 = 0.8911 | – | 845.05 ± 0.85 | – | –
[1], 298.15 K, x1 = 0.8947 | – | – | 1208.3 ± 1.6 | –
[1], 298.15 K, x1 = 0.9246 | – | – | – | 0.507 ± 0.014
[1], 298.15 K, x1 = 0.9337 | – | – | 1206.1 ± 1.6 | –
[1], 298.15 K, x1 = 0.9585 | – | – | – | 0.502 ± 0.014
[1], 313.15 K, x1 = 0.0518 | – | – | – | 1.555 ± 0.037
[1], 313.15 K, x1 = 0.0519 | – | – | 1184.6 ± 1.6 | –
[1], 313.15 K, x1 = 0.1038 | – | 799.46 ± 0.96 | – | –
[1], 313.15 K, x1 = 0.1048 | – | – | – | 1.361 ± 0.033
[1], 313.15 K, x1 = 0.1237 | – | – | 1181.8 ± 1.6 | –
[1], 313.15 K, x1 = 0.2098 | – | 804.34 ± 0.95 | – | –
[1], 313.15 K, x1 = 0.2123 | – | – | – | 1.085 ± 0.027
[1], 313.15 K, x1 = 0.2168 | – | – | 1177.7 ± 1.6 | –
[1], 313.15 K, x1 = 0.3097 | – | – | 1172.9 ± 1.6 | –
[1], 313.15 K, x1 = 0.3139 | – | 808.86 ± 0.94 | – | –
[1], 313.15 K, x1 = 0.3159 | – | – | – | 0.896 ± 0.023
[1], 313.15 K, x1 = 0.4133 | – | – | 1167.2 ± 1.6 | –
[1], 313.15 K, x1 = 0.4135 | – | 813 ± 0.93 | – | –
[1], 313.15 K, x1 = 0.4197 | – | – | – | 0.759 ± 0.02
[1], 313.15 K, x1 = 0.4906 | – | 816.02 ± 0.92 | – | –
[1], 313.15 K, x1 = 0.511 | – | – | 1161.3 ± 1.6 | –
[1], 313.15 K, x1 = 0.5195 | – | – | – | 0.651 ± 0.017
[1], 313.15 K, x1 = 0.6175 | – | 820.8 ± 0.91 | – | –
[1], 313.15 K, x1 = 0.6211 | – | – | – | 0.574 ± 0.016
[1], 313.15 K, x1 = 0.6561 | – | – | 1152.6 ± 1.6 | –
[1], 313.15 K, x1 = 0.7116 | – | – | – | 0.518 ± 0.015
[1], 313.15 K, x1 = 0.7256 | – | 824.59 ± 0.9 | – | –
[1], 313.15 K, x1 = 0.7265 | – | – | 1148.3 ± 1.6 | –
[1], 313.15 K, x1 = 0.8103 | – | – | – | 0.473 ± 0.014
[1], 313.15 K, x1 = 0.8151 | – | – | 1142.7 ± 1.6 | –
[1], 313.15 K, x1 = 0.8172 | – | 827.71 ± 0.89 | – | –
[1], 313.15 K, x1 = 0.8909 | – | 830.17 ± 0.89 | – | –
[1], 313.15 K, x1 = 0.8995 | – | – | 1137.1 ± 1.6 | –
[1], 313.15 K, x1 = 0.9246 | – | – | – | 0.432 ± 0.013
[1], 313.15 K, x1 = 0.9476 | – | – | 1133.5 ± 1.6 | –
[1], 313.15 K, x1 = 0.9585 | – | – | – | 0.425 ± 0.012
[2], 283.15 K, x1 = 0.054 | 0.0237 ± 0.000717 | – | – | –
[2], 283.15 K, x1 = 0.104 | 0.0492 ± 0.0012 | – | – | –
[2], 283.15 K, x1 = 0.206 | 0.092 ± 0.00191 | – | – | –
[2], 283.15 K, x1 = 0.308 | 0.131 ± 0.00287 | – | – | –
[2], 283.15 K, x1 = 0.411 | 0.154 ± 0.00335 | – | – | –
[2], 283.15 K, x1 = 0.51 | 0.166 ± 0.00359 | – | – | –
[2], 283.15 K, x1 = 0.609 | 0.166 ± 0.00359 | – | – | –
[2], 283.15 K, x1 = 0.708 | 0.151 ± 0.00335 | – | – | –
[2], 283.15 K, x1 = 0.806 | 0.121 ± 0.00263 | – | – | –
[2], 283.15 K, x1 = 0.907 | 0.0696 ± 0.00143 | – | – | –
[2], 283.15 K, x1 = 0.953 | 0.038 ± 0.000956 | – | – | –
[2], 298.15 K, x1 = 0.054 | 0.0263 ± 0.000717 | – | – | –
[2], 298.15 K, x1 = 0.104 | 0.0526 ± 0.0012 | – | – | –
[2], 298.15 K, x1 = 0.206 | 0.102 ± 0.00215 | – | – | –
[2], 298.15 K, x1 = 0.308 | 0.14 ± 0.00311 | – | – | –
[2], 298.15 K, x1 = 0.411 | 0.166 ± 0.00359 | – | – | –
[2], 298.15 K, x1 = 0.51 | 0.179 ± 0.00382 | – | – | –
[2], 298.15 K, x1 = 0.609 | 0.178 ± 0.00382 | – | – | –
[2], 298.15 K, x1 = 0.708 | 0.162 ± 0.00359 | – | – | –
[2], 298.15 K, x1 = 0.806 | 0.129 ± 0.00287 | – | – | –
[2], 298.15 K, x1 = 0.907 | 0.0741 ± 0.00167 | – | – | –
[2], 298.15 K, x1 = 0.953 | 0.0406 ± 0.000956 | – | – | –
[2], 313.15 K, x1 = 0.054 | 0.0277 ± 0.000717 | – | – | –
[2], 313.15 K, x1 = 0.104 | 0.0559 ± 0.0012 | – | – | –
[2], 313.15 K, x1 = 0.206 | 0.109 ± 0.00239 | – | – | –
[2], 313.15 K, x1 = 0.308 | 0.151 ± 0.00335 | – | – | –
[2], 313.15 K, x1 = 0.411 | 0.179 ± 0.00382 | – | – | –
[2], 313.15 K, x1 = 0.51 | 0.193 ± 0.00406 | – | – | –
[2], 313.15 K, x1 = 0.609 | 0.192 ± 0.00406 | – | – | –
[2], 313.15 K, x1 = 0.708 | 0.174 ± 0.00382 | – | – | –
[2], 313.15 K, x1 = 0.806 | 0.138 ± 0.00311 | – | – | –
[2], 313.15 K, x1 = 0.907 | 0.0786 ± 0.00167 | – | – | –
[2], 313.15 K, x1 = 0.953 | 0.0428 ± 0.000956 | – | – | –
